ChEMBL document CHEMBL1909046, “DrugMatrix in vitro pharmacology data”

Assays:
Glucocorticoid receptor = biological target: T1, Glucocorticoid receptor (Homo sapiens, UniProt P04150); details: hela s3; note: in other assays of this panel Not Active means under 50% inhibition at 10 µM
T1 sequence (P04150 whole entry): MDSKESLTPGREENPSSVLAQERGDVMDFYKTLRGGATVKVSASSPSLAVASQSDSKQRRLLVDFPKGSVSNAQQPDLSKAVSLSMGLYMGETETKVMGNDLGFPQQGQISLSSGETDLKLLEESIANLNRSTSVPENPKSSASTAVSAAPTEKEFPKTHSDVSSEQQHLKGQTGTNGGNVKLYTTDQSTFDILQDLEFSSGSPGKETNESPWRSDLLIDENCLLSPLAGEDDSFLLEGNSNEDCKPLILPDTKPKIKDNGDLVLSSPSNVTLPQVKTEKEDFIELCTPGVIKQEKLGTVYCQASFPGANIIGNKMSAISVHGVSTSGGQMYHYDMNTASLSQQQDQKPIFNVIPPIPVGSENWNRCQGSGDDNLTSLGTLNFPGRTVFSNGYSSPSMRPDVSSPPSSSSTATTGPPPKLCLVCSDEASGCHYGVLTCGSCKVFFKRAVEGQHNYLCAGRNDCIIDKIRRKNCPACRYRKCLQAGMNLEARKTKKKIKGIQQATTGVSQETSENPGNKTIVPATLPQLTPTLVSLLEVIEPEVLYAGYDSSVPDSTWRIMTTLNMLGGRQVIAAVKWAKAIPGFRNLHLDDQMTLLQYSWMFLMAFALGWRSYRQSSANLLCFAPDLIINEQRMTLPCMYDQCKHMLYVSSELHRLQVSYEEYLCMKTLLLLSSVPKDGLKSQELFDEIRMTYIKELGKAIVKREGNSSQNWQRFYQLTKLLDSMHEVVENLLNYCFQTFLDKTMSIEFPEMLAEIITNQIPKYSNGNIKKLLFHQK

[1] = DRUGMATRIX: Glutamate, NMDA, Agonism radioligand binding (ligand: [3H] CGP-39653); format: cell membranes, Rattus norvegicus, Wistar, Cerebral cortex, Membrane; details: Not Active = under 50% inhibition at 10 µM
Cytochrome P450 3A4 = Cytochrome P450 3A4 (Homo sapiens, UniProt P08684); details: bti-tn-5b1-4; note: in other assays of this panel Not Active means under 50% inhibition at 10 µM
Sequence of Cytochrome P450 3A4 (P08684 whole entry): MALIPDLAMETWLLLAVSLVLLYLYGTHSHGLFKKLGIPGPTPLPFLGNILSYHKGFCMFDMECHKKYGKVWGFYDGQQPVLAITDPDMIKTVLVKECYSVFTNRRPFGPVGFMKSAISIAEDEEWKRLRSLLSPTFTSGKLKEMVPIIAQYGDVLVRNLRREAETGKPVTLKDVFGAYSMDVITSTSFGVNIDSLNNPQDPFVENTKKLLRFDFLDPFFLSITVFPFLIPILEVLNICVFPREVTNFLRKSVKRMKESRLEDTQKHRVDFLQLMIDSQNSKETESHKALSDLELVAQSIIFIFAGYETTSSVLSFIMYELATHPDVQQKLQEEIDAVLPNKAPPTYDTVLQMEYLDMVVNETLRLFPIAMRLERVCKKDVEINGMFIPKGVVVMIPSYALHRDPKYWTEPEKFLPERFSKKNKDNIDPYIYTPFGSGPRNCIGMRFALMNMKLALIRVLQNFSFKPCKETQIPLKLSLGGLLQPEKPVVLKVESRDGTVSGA

[2] = biological target: Tyrosine-protein kinase Fyn (Homo sapiens, UniProt P06241); experiment: biochemical; format: cell-based, Insect cells;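 note: enzymatic inhibition of Fyn kinase activity measured with Poly(Glu:Tyr) as the phosphorylation substrate; in other assays of this panel Not Active means under 50% inhibition at 10 µM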
Sequence of Tyrosine-protein kinase Fyn (P06241 whole entry): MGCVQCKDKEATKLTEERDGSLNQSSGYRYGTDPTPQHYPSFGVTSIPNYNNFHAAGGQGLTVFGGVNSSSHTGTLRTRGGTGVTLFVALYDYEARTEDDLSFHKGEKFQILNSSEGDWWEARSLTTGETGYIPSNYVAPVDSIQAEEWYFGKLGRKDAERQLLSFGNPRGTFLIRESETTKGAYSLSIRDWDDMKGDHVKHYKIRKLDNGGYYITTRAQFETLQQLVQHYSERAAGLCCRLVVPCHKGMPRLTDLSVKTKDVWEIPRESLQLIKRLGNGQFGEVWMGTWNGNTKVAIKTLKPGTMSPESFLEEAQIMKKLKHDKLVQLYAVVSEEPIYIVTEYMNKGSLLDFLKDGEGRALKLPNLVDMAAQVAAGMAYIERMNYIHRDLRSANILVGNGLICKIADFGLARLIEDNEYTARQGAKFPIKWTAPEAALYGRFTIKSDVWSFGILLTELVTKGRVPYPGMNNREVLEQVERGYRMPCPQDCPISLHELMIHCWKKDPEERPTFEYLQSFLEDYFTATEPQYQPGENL

[3] = biological target: T2, C-X-C chemokine receptor type 2 (Homo sapiens, UniProt P25025); format: cell membranes, Membrane; details: cho-k1; note: in other assays of this panel Not Active means under 50% inhibition at 10 µM
T2 sequence (P25025 whole entry): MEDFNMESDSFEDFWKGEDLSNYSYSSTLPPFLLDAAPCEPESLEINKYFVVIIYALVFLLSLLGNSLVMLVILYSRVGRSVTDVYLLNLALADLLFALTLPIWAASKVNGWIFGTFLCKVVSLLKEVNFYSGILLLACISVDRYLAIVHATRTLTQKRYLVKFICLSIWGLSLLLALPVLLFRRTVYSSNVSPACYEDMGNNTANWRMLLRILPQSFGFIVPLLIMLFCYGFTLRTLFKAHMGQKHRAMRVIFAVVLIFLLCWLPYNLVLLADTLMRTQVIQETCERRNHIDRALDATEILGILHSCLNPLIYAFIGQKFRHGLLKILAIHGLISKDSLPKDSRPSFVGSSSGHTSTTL

[4] = biological target: T3, Neuropeptide Y receptor type 2 (Homo sapiens, UniProt P49146); format: cell membranes, KAN-TS, Membrane; details: kan-ts; note: in other assays of this panel Not Active means under 50% inhibition at 10 µM
T3 sequence (P49146 whole entry): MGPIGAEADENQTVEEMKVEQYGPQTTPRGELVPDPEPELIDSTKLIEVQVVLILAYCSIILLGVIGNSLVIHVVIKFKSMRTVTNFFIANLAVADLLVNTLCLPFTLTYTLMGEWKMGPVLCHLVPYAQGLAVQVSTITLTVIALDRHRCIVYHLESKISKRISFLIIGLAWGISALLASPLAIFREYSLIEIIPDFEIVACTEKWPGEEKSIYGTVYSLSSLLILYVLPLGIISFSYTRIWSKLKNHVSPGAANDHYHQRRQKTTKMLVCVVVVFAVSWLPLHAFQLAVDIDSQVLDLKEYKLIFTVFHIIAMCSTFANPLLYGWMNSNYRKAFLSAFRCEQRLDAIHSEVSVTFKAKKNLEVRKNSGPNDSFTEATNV

[5] = biological target: T4, Alpha-1A adrenergic receptor (Rattus norvegicus, UniProt P43140); experiment: DRUGMATRIX: Alpha-1A adrenergic receptor radioligand binding (ligand: prazosin); format: cell membranes, Wistar, Submaxillary gland, Membrane; details: Not Active = under 50% inhibition at 10 µM
T4 sequence (P43140 whole entry): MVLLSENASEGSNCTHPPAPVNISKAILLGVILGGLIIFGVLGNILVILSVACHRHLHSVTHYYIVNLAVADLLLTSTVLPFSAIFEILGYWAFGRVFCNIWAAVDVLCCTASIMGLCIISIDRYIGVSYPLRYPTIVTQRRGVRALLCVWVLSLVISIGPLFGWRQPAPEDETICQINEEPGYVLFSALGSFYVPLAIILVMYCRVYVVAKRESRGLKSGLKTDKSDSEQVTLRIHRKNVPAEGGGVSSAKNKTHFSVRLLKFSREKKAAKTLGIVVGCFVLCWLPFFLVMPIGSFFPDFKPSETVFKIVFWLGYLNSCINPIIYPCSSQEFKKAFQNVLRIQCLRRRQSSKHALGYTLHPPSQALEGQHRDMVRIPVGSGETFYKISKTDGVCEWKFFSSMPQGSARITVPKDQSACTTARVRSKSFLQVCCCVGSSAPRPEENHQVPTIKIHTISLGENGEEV

SMILES	IC50 (Glucocorticoid receptor)	IC50 [1]	Ki [1]	IC50 (Cytochrome P450 3A4)	Ki (Cytochrome P450 3A4)	IC50 ([2]; insect cells)	IC50 [3]	IC50 [4]	IC50 [5]	IC50 ([2]; read-out: IC50) [µM]	IC50 ([5]; read-out: IC50) [µM]	Ki ([5]; read-out: Ki) [µM]
CC(c1cc2ccccc2s1)N(O)C(N)=O (stereo not given) [ZILEUTON]	Not Active	Not Active	Not Active	Not Active	Not Active	Not Active	Not Active	Not Active	Not Active	–	–	–
O=C1Nc2ccc(Cl)cc2C(c2ccccc2Cl)=NC1O (stereo not given) [LORAZEPAM]	Not Active	Not Active	Not Active	Not Active	Not Active	Not Active	Not Active	Not Active	Not Active	–	–	–
CCN(CC)CCOc1ccc(/C(=C(/Cl)c2ccccc2)c2ccccc2)cc1 [ENCLOMIPHENE]	Not Active	–	–	Not Active	Not Active	–	Not Active	Not Active	Not Active	2.51	–	–
CC(C)Cc1ccc([C@@H](C)C(=O)O)cc1 [(R)-IBUPROPHEN]	Not Active	Not Active	Not Active	Not Active	Not Active	Not Active	Not Active	Not Active	Not Active	–	–	–
CN(C/C=C/C#CC(C)(C)C)Cc1cccc2ccccc12 [TERBINAFINE]	Not Active	Not Active	Not Active	–	–	Not Active	Not Active	Not Active	Not Active	–	–	–
Cn1c(=O)c2nc[nH]c2n(C)c1=O.O [THEOPHYLLINE]	–	Not Active	Not Active	Not Active	Not Active	Not Active	Not Active	Not Active	Not Active	–	–	–
Cc1cccc(C)c1OCC(C)N (stereo not given) [MEXILETINE]	–	Not Active	Not Active	Not Active	Not Active	Not Active	Not Active	Not Active	Not Active	–	–	–
COc1ccc(CCN(C)CCCC(C#N)(c2ccc(OC)c(OC)c2)C(C)C)cc1OC (stereo not given)	–	Not Active	Not Active	Not Active	Not Active	Not Active	Not Active	Not Active	–	–	–	–
CN[C@H]1CC[C@@H](c2ccc(Cl)c(Cl)c2)c2ccccc21 [SERTRALINE]	Not Active	–	–	Not Active	Not Active	Not Active	Not Active	Not Active	Not Active	–	–	–
O=C(Oc1ccccc1C(=O)O)c1ccccc1O [SALSALATE]	–	Not Active	Not Active	Not Active	Not Active	Not Active	Not Active	Not Active	Not Active	–	–	–
C[C@H]1C[C@@H]2[C@H]([C@@H](O)C[C@@]3(C)[C@H]2CC[C@]3(O)C(=O)CO)[C@@]2(C)C=CC(=O)C=C12 [METHYLPREDNISOLONE]	–	Not Active	Not Active	Not Active	Not Active	Not Active	Not Active	Not Active	Not Active	–	–	–
Fc1ccc(C(c2ccc(F)cc2)N2CCN(C/C=C/c3ccccc3)CC2)cc1 [FLUNARIZINE]	Not Active	–	–	Not Active	Not Active	Not Active	Not Active	Not Active	–	–	1.09	0.44
